Data: patent US4239767A, “Antimycotic diaryloxy-imidazolyl-O,N-acetals” (Bayer Aktiengesellschaft, priority 1974, dated 1980)
≈ marks a conversion by molar mass, not a printed value.

Experiments:
[1] = system: spores; settings: prior art / commercially available products; cited from earlier work
[2] = system: Asp. fum.; experiment: in vitro series dilution test (MIC), Asp. fum.; format: cell-based; settings: Aspergillus fumigatus; 28° C., 24-96 hours, 10^3 germs/ml; read-out: MIC values when used against Asp. fum.
Procedure: (§1) The in vitro test was carried out as a series dilution test. Amount inoculated: 10^3 germs/ml. The nutrient substrates used were Sabouraud's milieu d'epreuve, meat stock/glucose bouillon, malt extract agar and Francis's blood agar. The incubation temperature was 28° C. and the incubation time 24-96 hours.

[3] = system: Cand. alb.; experiment: in vitro series dilution test (MIC), Cand. alb.; format: cell-based; settings: 28° C., 24-96 hours, 10^3 germs/ml; read-out: MIC values when used against Cand. alb.
Procedure: as §1

[4] = system: Sporothrix Schenckii; experiment: in vitro series dilution test (MIC), Sporothrix Schenckii; format: cell-based; settings: 28° C., 24-96 hours, 10^3 germs/ml, read-out: MIC values when used against Sporothrix Schenckii
Procedure: as §1

[5] = system: Trich. ment.; experiment: in vitro series dilution test (MIC), Trich. ment.; format: cell-based; settings: Trichophyton mentagrophytes; 28° C., 24-96 hours, 10^3 germs/ml; read-out: MIC values when used against Trich. ment.
Procedure: as §1

[6] = system: Torulopsis glab.; experiment: in vitro series dilution test (MIC), Torulopsis glab.; format: cell-based; settings: 28° C., 24-96 hours, 10^3 germs/ml; read-out: MIC values when used against Torulopsis glab.
Procedure: as §1

[7] = system: candidosis; experiment: in vivo action on oral administration, candidosis of mice; settings: 100 mg/kg of body weight, twice daily, Control 5
Excerpt: (§2) The table which follows summarizes in the vivo action of the preparations claimed on oral administration--for the models of candidosis of mice and trichophytia of mice--and on local administration--for the model of trichophytia of guinea-pigs.

[8] = system: trichophytia; experiment: in vivo action on local administration, trichophytia of guinea-pigs; set-up: key: ++++: very good action = no sign of; +++: good action = very slight sign of; ++: action = slight loss of hair; +: slight action = loss of hair, squamation; settings: 1% strength solution once a day from the 3rd to the 13th day after infection, Control pronounced dermatophytosis
Excerpt: as §2

[9] = system: trichophytia; experiment: in vivo action on oral administration, trichophytia of mice; set-up: key: ++++: very good action = no sign of; +++: good action = very slight sign of; ++: action = slight loss of hair; +: slight action = loss of hair, squamation; settings: 100 mg/kg of body weight, twice daily, Control pronounced dermatophytosis
Excerpt: as §2

[10] = system: Trich. ment.; experiment: sporocidal action, Trich. ment. spores; format: cell-based, Trichophyton mentagrophytes; settings: 10 γ of preparation/ml, 72 hours; Control 10^5 = mycelium
Procedure: (§3) About 10^4 spores of Trich. ment. or Trich. Quinckeanum or Aspergillus fumigatus per ml are suspended in physiological NaCl solution and the stated preparations are added in concentrations of 1, 5, 10, 50 and 100 y/ml of suspending solution. The spore suspensions are incubated for 24, 48, 72, 96, 120 and 240 hours, 0.1 ml are withdrawn per concentration and per tube after the stated incubation times and spread homogeneously on malt extract Petri dishes, and the number of spores which still germinate is counted, after 48 hours' incubation time at 28° C., in comparison to untreated controls. The table which follows lists, for the individual preparations, the number of spores which still germinate after an exposure period of 72 hours at preparation concentrations of 10 γ/ml.

[11] = system: Aspergillus fum.; experiment: sporocidal action, Aspergillus fumigatus spores; format: cell-based; settings: 10 γ of preparation/ml, 72 hours; Control 10^5 = mycelium
Procedure: as §3

SMILES	MIC [2]	MIC [3]	MIC [4]	MIC [5]	MIC [6]	Therapeutic activity, candidosis, % survival [7]	Therapeutic activity, trichophytia, local application [8]	Therapeutic activity, trichophytia, oral administration [9]	Number of spores still capable of germination, Trich. ment. [10]	Number of spores still capable of germination, Aspergillus fum. [11]	other results
COC1=CC(=O)C[C@@H](C)[C@]12Oc1c(Cl)c(OC)cc(OC)c1C2=O [Griseofulvin]											sporocidal activity [1]: not present
C[C@@H]1[C@H](O)[C@@H](C)/C=C/C=C/CC/C=C/C=C/C=C/C=C/C(O[C@H]2O[C@H](C)[C@@H](O)[C@H](N)[C@@H]2O)CC2O[C@](O)(CC(O)C(O)CCC(O)CC(O)CC(O)CC(=O)O[C@H]1C)CC(O)C2C(=O)O (stereo partly drawn) [Nystatin]											sporocidal activity [1]: not present
CC(C)(C)C(O)C(Oc1ccc(-c2ccc(Cl)cc2)cc1)n1ccnc1 (stereo not drawn) [drawing 8]	2 to 4 µg/mL (≈ 5.39 to 10.8 µM)	4 µg/mL (≈ 10.8 µM)	0.1 µg/mL (≈ 0.27 µM)	< 1 µg/mL	4 µg/mL (≈ 10.8 µM)						
CC(C)(C)C(O)C(Oc1ccc(Cc2ccccc2)cc1)n1ccnc1 (stereo not drawn) [drawing 9]	< 1 µg/mL	4 µg/mL (≈ 11.4 µM)	0.5 µg/mL (≈ 1.43 µM)	< 1 µg/mL	4 µg/mL (≈ 11.4 µM)						
CC(C)(C)C(O)C(Oc1ccc(S(=O)(=O)c2ccccc2)cc1)n1ccnc1 (stereo not drawn) [drawing 10]	< 1 µg/mL	2 to 4 µg/mL (≈ 4.99 to 9.99 µM)	0.5 µg/mL (≈ 1.25 µM)	< 1 µg/mL	4 µg/mL (≈ 9.99 µM)						
CC(C)(C)C(=O)C(Oc1c(Cl)cc(-c2ccc(Br)cc2)cc1Cl)n1ccnc1 (stereo not drawn) [drawing 11]	4 µg/mL (≈ 8.3 µM)	8 µg/mL (≈ 16.6 µM)	0.1 µg/mL (≈ 0.207 µM)	4 µg/mL (≈ 8.3 µM)	2 µg/mL (≈ 4.15 µM)						
CC(C)(C)C(=O)C(Oc1ccc(Cc2ccccc2)cc1)n1ccnc1 (stereo not drawn) [drawing 12]	2 µg/mL (≈ 5.74 µM)	16 µg/mL (≈ 45.9 µM)	2 µg/mL (≈ 5.74 µM)	< 1 µg/mL	4 µg/mL (≈ 11.5 µM)						
CC(C)(C)C(=O)C(Oc1ccc(S(=O)(=O)c2ccccc2)cc1)n1ccnc1 (stereo not drawn) [drawing 13]	1 µg/mL (≈ 2.51 µM)	4 µg/mL (≈ 10 µM)	2 µg/mL (≈ 5.02 µM)	64 µg/mL (≈ 161 µM)	2 µg/mL (≈ 5.02 µM)						
CC(C)(C)C(=O)C(Oc1c(Cl)cc(-c2ccc(Br)cc2)cc1Br)n1ccnc1 (stereo not drawn) [drawing 14]	4 µg/mL (≈ 7.6 µM)	8 µg/mL (≈ 15.2 µM)	4 µg/mL (≈ 7.6 µM)	8 µg/mL (≈ 15.2 µM)	4 µg/mL (≈ 7.6 µM)						
CC(C)(C)C(O)C(Oc1ccc(-c2ccc(Cl)cc2)cc1)n1ccnc1 (stereo not drawn) [drawing 15]						80%	++++	+++			
CC(C)(C)C(O)C(Oc1ccc(Cc2ccccc2)cc1)n1ccnc1 (stereo not drawn) [drawing 16]						60%	+++	++			
CC(C)(C)C(O)C(Oc1ccc(S(=O)(=O)c2ccccc2)cc1)n1ccnc1 (stereo not drawn) [drawing 17]						80%	+++	++			
CC(C)(C)C(=O)C(Oc1c(Cl)cc(-c2ccc(Br)cc2)cc1Cl)n1ccnc1 (stereo not drawn) [drawing 18]						50%	+++	++			
CC(C)(C)C(=O)C(Oc1ccc(Cc2ccccc2)cc1)n1ccnc1 (stereo not drawn) [drawing 19]						50%	++	+++			
CC(C)(C)C(=O)C(Oc1ccc(S(=O)(=O)c2ccccc2)cc1)n1ccnc1 (stereo not drawn) [drawing 20]						80%	+++	++			
CC(C)(C)C(=O)C(Oc1c(Cl)cc(-c2ccc(Br)cc2)cc1Br)n1ccnc1 (stereo not drawn) [drawing 21]						40%	++	+			
CC(C)(C)C(O)C(Oc1ccc(-c2ccc(Cl)cc2)cc1)n1ccnc1 (stereo not drawn) [drawing 22]									80	35	
CC(C)(C)C(O)C(Oc1ccc(Cc2ccccc2)cc1)n1ccnc1 (stereo not drawn) [drawing 23]									110	40	
CC(C)(C)C(O)C(Oc1ccc(S(=O)(=O)c2ccccc2)cc1)n1ccnc1 (stereo not drawn) [drawing 24]									60	70	
CC(C)(C)C(=O)C(Oc1c(Cl)cc(-c2ccc(Br)cc2)cc1Cl)n1ccnc1 (stereo not drawn) [drawing 25]									90	40	
CC(C)(C)C(=O)C(Oc1ccc(Cc2ccccc2)cc1)n1ccnc1 (stereo not drawn) [drawing 26]									40	60	
CC(C)(C)C(=O)C(Oc1ccc(S(=O)(=O)c2ccccc2)cc1)n1ccnc1 (stereo not drawn) [drawing 27]									10^5	70	
CC(C)(C)C(=O)C(Oc1c(Cl)cc(-c2ccc(Br)cc2)cc1Br)n1ccnc1 (stereo not drawn) [drawing 28]									60	45	
